Where a name gives a salt, the structure may show the parent alone.

This note sets out measurements from US6685617B1, “Inhibitors of α4β1 mediated cell adhesion” (Pharmacia & Upjohn Company, priority 1998, dated 2004).

In test [1] the target is T1, α4β1 integrin (Jurkat cell adhesion to immobilized CS-1 derived peptide CLHPGEILDVPST) (Homo sapiens, UniProt P05556+P13612).
T1 construct: 100 μl of Jurkat cells (2.5×10^6 cells/ml) in DMEM plus BSA; host or cells: Jurkat T-cell line
The test can be described thus: Jurkat-CS-1 assay. The conditions noted are these: Jurkat cells on CS-1 peptide coated plates; read-out: JK/CS-1 (Jurkat CS-1 Assay IC50 value range). It is filed as cell-based. In short, it runs like this:
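CS-1 peptide was SPDP-crosslinked onto HSA-coated plates and blocked with BSA. Jurkat cells (2.5×10^6 cells/ml) in DMEM/BSA were mixed with compound, generally at 100, 20, 5 and 1.25 μM, and allowed to adhere for 1 hr at 37° C. Bound cells were fixed, stained with toluidine blue and quantified by OD590.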

Test [2] deals with T2, α4β1 integrin (Jurkat T-cell adhesion to IL-1 stimulated endothelial cell monolayers) (Homo sapiens, UniProt P05556+P13612).
T2 construct: a T-cell line, Jurkat, known to express the α4β1 integrin; host or cells: Jurkat T-cell line
The test can be described thus: Jurkat-endothelial cell adhesion assay (Jurkat EC). It is filed as cell-based. The conditions noted are these: Jurkat cells on IL-1 stimulated human umbilical vein endothelial cells; read-out: JK/EC (Jurkat EC Assay IC50 value range). In short, it runs like this:
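Adhesion was expressed as percent of compound-free fluorescence after 20 min at 37° C (following 5 min settling on ice) of BCECF-loaded Jurkat T cells on washed HUVEC monolayers. The endothelium, passage 6 or lower, had received 0.1 ng/ml recombinant IL-1 for 4 hr at 37° C; compound was premixed with the T cells, typically at 100, 20, 5 and 1.25 μM.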

T1 sequence (P13612 34-1032): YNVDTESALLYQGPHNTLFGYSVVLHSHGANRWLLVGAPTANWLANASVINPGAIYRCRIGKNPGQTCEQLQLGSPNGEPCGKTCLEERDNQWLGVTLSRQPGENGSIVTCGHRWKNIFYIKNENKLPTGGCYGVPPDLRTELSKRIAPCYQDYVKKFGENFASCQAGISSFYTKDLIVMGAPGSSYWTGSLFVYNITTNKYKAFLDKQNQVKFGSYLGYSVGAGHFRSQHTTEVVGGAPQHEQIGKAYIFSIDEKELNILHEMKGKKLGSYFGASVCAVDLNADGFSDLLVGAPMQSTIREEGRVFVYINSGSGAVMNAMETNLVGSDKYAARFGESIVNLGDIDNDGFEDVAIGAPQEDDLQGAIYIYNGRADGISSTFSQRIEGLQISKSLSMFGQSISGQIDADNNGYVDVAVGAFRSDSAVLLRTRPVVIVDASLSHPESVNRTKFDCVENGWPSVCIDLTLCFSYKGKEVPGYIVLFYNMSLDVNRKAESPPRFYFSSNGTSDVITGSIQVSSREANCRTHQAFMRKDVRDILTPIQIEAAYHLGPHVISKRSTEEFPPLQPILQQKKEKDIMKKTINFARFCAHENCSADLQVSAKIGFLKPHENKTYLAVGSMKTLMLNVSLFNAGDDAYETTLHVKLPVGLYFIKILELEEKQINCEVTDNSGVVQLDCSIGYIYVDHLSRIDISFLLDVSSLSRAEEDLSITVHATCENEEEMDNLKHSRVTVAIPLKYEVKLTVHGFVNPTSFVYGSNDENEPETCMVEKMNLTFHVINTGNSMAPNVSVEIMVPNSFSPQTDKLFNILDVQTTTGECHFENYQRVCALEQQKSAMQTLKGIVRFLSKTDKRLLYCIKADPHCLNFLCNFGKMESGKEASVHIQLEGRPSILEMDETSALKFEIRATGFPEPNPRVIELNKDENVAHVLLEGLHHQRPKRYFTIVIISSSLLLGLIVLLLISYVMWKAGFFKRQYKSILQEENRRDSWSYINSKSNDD
T1 sequence (P05556 21-798): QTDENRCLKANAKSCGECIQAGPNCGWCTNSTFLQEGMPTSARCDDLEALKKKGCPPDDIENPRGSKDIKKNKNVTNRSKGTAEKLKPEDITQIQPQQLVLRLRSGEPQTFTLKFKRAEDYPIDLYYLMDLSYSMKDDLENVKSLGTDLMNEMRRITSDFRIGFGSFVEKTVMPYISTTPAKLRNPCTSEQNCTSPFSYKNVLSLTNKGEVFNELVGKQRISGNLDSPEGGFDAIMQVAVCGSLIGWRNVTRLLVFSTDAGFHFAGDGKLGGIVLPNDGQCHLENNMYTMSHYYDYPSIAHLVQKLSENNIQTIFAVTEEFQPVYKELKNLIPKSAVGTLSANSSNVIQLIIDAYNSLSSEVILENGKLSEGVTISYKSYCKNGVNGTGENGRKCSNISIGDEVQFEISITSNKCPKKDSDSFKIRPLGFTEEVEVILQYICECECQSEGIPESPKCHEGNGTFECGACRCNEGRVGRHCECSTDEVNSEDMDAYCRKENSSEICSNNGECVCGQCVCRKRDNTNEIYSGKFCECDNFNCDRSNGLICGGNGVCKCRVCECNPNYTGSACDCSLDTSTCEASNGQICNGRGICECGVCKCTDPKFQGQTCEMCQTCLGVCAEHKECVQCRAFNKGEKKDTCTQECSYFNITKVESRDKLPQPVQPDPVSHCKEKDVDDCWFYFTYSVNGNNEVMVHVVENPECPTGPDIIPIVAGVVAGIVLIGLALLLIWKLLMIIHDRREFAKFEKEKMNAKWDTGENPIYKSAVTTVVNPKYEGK
T2 sequence (P13612 34-1032): as the sequence (P13612 34-1032) above
T2 sequence (P05556 21-798): as the sequence (P05556 21-798) above

Regarding `CC(C)(C)OC(=O)N1CC[C@H]1C(=O)N[C@@H](Cc1ccc(NC(=O)c2c(Cl)cccc2Cl)cc1)C(=O)O` [Example 143, [2S-(R*,R*)]-2-[[[1-Carboxy-2-[4-[(2,6-dichlorobenzoyl)amino]phenyl]ethyl]amino]-carbonyl]-1-azetidinecarboxylic Acid 1-(1,1-Dimethylethyl)ester], the IC50 in test [1] is 50 to 750 nM; in test [2], no less than 1000 nM.

Take `O=C(CCC1(C(=O)O)CCC(=O)N1)N[C@@H](Cc1ccc(OCc2c(Cl)cccc2Cl)cc1)C(=O)O` (stereo partly drawn) [Example 117, 2-[3-[[(1S)-1-Carboxy-2-[4-[(2,6-dichlorophenyl)methoxy]phenyl]ethyl]amino]-3-oxo-propyl]-5-oxoproline]: the IC50 in test [1] was 50 to 750 nM; in test [2], no less than 1000 nM.

With `O=C(O)CCC(=O)N1CSC[C@@H]1C(=O)N[C@@H](Cc1ccc(OCc2c(Cl)cccc2Cl)cc1)C(=O)O` (relative stereo) [Example 64, [S-(R*,R*)]-4-[[[1-Carboxy-2-[4-[(2,6-dichlorophenyl)methoxy]phenyl]ethyl]amino]carbonyl]-γ-oxo-3-thiazolidinebutanoic Acid], the IC50 in test [1] was no more than 50 nM; in test [2], no more than 250 nM.

In the case of `O=C(O)c1cccc(C(=O)N2CCC(C(=O)N[C@@H](Cc3ccc(NC(=O)c4c(Cl)cccc4Cl)cc3)C(=O)O)CC2)c1` [Example 220], the IC50 in test [1] is 50 to 750 nM; in test [2], no less than 1000 nM.

For the compound `O=C(O)c1ccc2cc(C(=O)N3CCCC(C(=O)N[C@@H](Cc4ccc(NC(=O)c5c(Cl)cccc5Cl)cc4)C(=O)O)C3)ccc2c1` (stereo partly drawn) [Example 206], the IC50 fell in the range of 50 to 750 nM in test [1] and 250 to 1000 nM in test [2].

Consider `CC(=O)N1CSC[C@H]1C(=O)N[C@@H](Cc1ccc(NC(=O)c2c(Cl)cccc2Cl)cc1)C(=O)O` [Example 70, N-[[(4R)-3-Acetyl-4-thiazolidinyl]carbonyl]-4[(2,6-dichlorobenzoyl)amino]-L-phenylalanine], for which the results for the IC50 in test [1] and in test [2] were no more than 50 nM and 250 to 1000 nM, respectively.

For the compound `CC(C)=CCN1C(=O)CCC1(CCC(=O)O)CCC(=O)N[C@@H](Cc1ccc(OCc2c(Cl)cccc2Cl)cc1)C(=O)O` (stereo partly drawn) [Example 109, 2-[3-[[(1S)-1-Carboxy-2-[4-[(2,6-dichlorophenyl)methoxy]phenyl]ethyl]amino]-3-oxo-propyl]-1-(3-methyl-2-butenyl)-5-oxo-2-pyrrolidinepropanoic Acid], the IC50 in test [1] is no less than 750 nM; in test [2], no less than 1000 nM.

`N#CCCC(=O)N1CCSC[C@H]1C(=O)N[C@@H](Cc1ccc(NC(=O)c2c(Cl)cccc2Cl)cc1)C(=O)O` [Example 104, N-[[(3R)-4-(3-Cyano-1-oxopropyl)-3-thiomorpholinyl]carbonyl]-4-[[2,6-dichlorobenzoyl)amino]-L-phenylalanine]: the IC50 is 50 to 750 nM in test [1] and no less than 1000 nM in test [2].

For `O=C(O)CNC(=O)N1CCC[C@H]1C(=O)N[C@@H](Cc1ccc(NC(=O)c2c(Cl)cccc2Cl)cc1)C(=O)O` [Example 232], the IC50 in test [1] is no less than 750 nM; in test [2] it was no less than 1000 nM.

For `O=C(Nc1ccc(C[C@H](NC(=O)[C@@H]2COCN2C(=O)OCc2ccccc2)C(=O)O)cc1)c1c(Cl)cccc1Cl` [Example 125, [S-(R*,R*)]-4-[[[1-Carboxy-2-[4-[(2,6-dichlorobenzoyl)amino]phenyl]ethyl]amino]-carbonyl]-3-oxazolidinecarboxylic Acid 3-Phenylmethyl Ester], the IC50 in test [1] lay in the range of 50 to 750 nM; in test [2], 250 to 1000 nM.

Turning to `COC(=O)[C@H](Cc1ccc(OCc2c(Cl)cccc2Cl)cc1)NC(=O)[C@H]1CSCN1C(=O)OCCN1CCCCC1` (relative stereo) [Example 5, [S-(R*,R*)]-4-[[[1-[4-[(2,6-Dichlorophenyl)methoxy]phenyl)methyl]-2-methoxy-2-oxoethyl]amino]carbonyl]-3-thiazolidinecarboxylic Acid 3-[2-(1-piperidinyl)ethyl]ester], the IC50 was in the range of 50 to 750 nM in test [1] and 250 to 1000 nM in test [2].

In the case of `O=C(Nc1ccc(C[C@H](NC(=O)[C@H]2CCCCN2C(=O)c2cccnc2)C(=O)O)cc1)c1c(Cl)cccc1Cl` [Example 252], the values for the IC50 in test [1] and in test [2] were no more than 50 nM and no more than 250 nM, respectively.

As to `COC(=O)[C@H](Cc1ccc(NC(=O)c2c(Cl)cccc2Cl)cc1)NC(=O)[C@H]1CSCN1C(=O)OCC1c2ccccc2-c2ccccc21` (relative stereo) [Example 18], the IC50 in test [1] is no less than 750 nM; in test [2] it was no less than 1000 nM.

As to `O=C(O)c1cccc(C(=O)N2CCCC[C@@H]2C(=O)N[C@@H](Cc2ccc(NC(=O)c3c(Cl)cccc3Cl)cc2)C(=O)O)n1` [Example 251], the IC50 in test [1] was no more than 50 nM; in test [2], no more than 250 nM.

In the case of `O=C(Nc1ccc(C[C@H](NC(=O)[C@H]2CSCN2S(=O)(=O)c2ccc(C(F)(F)F)cn2)C(=O)O)cc1)c1c(Cl)cccc1Cl` [Example 45], the IC50 is 50 to 750 nM in test [1] and 250 to 1000 nM in test [2].

On to `CS(=O)(=O)N1CSC[C@@H]1C(=O)N[C@@H](Cc1ccc(NC(=O)c2c(Cl)cccc2Cl)cc1)C(=O)O` [Example 3, 4-[(2,6-Dichlorobenzoyl)amino]-N-[[(4S)-3-(methylsulfonyl)-4-thiazolidinyl]carbonyl]-L-phenylalanine], for which the IC50 in test [1] was no more than 50 nM; in test [2], no more than 250 nM.

`COC(=O)[C@H](Cc1ccc(NC(=O)c2c(Cl)cccc2Cl)cc1)NC(=O)[C@H]1CSCN1C(=O)OCc1ccccn1` (relative stereo) [Example 148, [S-(R*,R*)]-4-[[[1-[[4-[(2,6-Dichlorobenzoyl)amino]phenyl]methyl]-2-methoxy-2-oxoethyl]amino]carbonyl]-3-thiazolidinecarboxylic Acid 3-(2-Pyridinylmethyl)ester]: the IC50 in test [1] is no more than 50 nM; in test [2] it was no more than 250 nM.

On to `CC(C)(C)OC(=O)N1CC(C(=O)N[C@@H](Cc2ccc(NC(=O)c3c(Cl)cccc3Cl)cc2)C(=O)O)C1` [Example 146], for which the values for the IC50 in test [1] and in test [2] were no less than 750 nM and no less than 1000 nM, respectively.

As to `COC(=O)[C@H](Cc1ccc(NC(=O)c2c(Cl)cccc2Cl)cc1)NC(=O)[C@H]1CSCN1C(=O)OC12CC3CC(CC(C3)C1)C2` (relative stereo) [Example 22, [S-(R*,R*)]-4-[[[1-[[4-[(2,6-Dichlorobenzoyl)amino]phenyl]methyl]-2-methoxy-2-oxoethyl]amino]carbonyl]-3-thiazolidinecarboxylic Acid 3-(Tricyclo[3.3.1.1^3,7]dec-1-yl)ester], the IC50 in test [1] was no less than 750 nM; in test [2] it was no less than 1000 nM.

In the case of `CC(C)(C)OC(=O)N1CSC[C@H]1C(=O)N[C@@H](Cc1ccc(OCc2c(Cl)cccc2Cl)cc1)C(=O)O` (relative stereo) [Example 41, [R-(R*,S*)]-4-[[[1-Carboxy-2-[4-[(2,6-dichlorophenyl)methoxy]phenyl]ethyl]amino]carbonyl]-3-thiazolidinecarboxylic Acid 3-(1,1-Dimethylethyl)ester], the IC50 in test [1] was no less than 750 nM; in test [2], no less than 1000 nM.

As for `COC(=O)[C@H](Cc1ccc(NC(=O)c2c(Cl)cccc2Cl)cc1)NC(=O)[C@H]1CSCN1C(C)=O` [Example 61, N-[[(4S)-3-Acetyl-4-thiazolidinyl]carbonyl]-4-[(2,6-dichlorobenzoyl)amino]-L-phenylalanine Methyl Ester], the figures for the IC50 in test [1] and in test [2] were 50 to 750 nM and 250 to 1000 nM, respectively.

On to `O=C(O)c1ccc2cc(C(=O)N3CCC[C@H]3C(=O)N[C@@H](Cc3ccc(NC(=O)c4c(Cl)cccc4Cl)cc3)C(=O)O)ccc2c1` [Example 236], for which the IC50 is no less than 750 nM in test [1] and no less than 1000 nM in test [2].

Consider `O=C(O)CCC(=O)N1CCC[C@H]1C(=O)N[C@@H](Cc1ccc(NC(=O)c2c(Cl)cccc2Cl)cc1)C(=O)O` [Example 224], for which the IC50 is 50 to 750 nM in test [1] and no less than 1000 nM in test [2].

Regarding `CC(C)(C)OC(=O)N1CSC(C)(C)[C@@H]1C(=O)N[C@@H](Cc1ccc(NC(=O)c2c(Cl)cccc2Cl)cc1)C(=O)O` (relative stereo) [Example 29, [S-(R*,R*)]-4-[[[1-Carboxy-2-[4-[(2,6-dichlorobenzoyl)amino]phenyl]ethyl]amino]carbonyl]-5,5-dimethyl-3-thiazolidinecarboxylic Acid 3-(1,1-Dimethylethyl)ester], the values for the IC50 in test [1] and in test [2] were 50 to 750 nM and 250 to 1000 nM, respectively.

As to `NC(=O)[C@H](Cc1ccc(OCc2c(Cl)cccc2Cl)cc1)NC(=O)[C@H]1CSCN1C(=O)OCCN1CCOCC1` (relative stereo) [Example 89, [S-(R*,R*)]-4-[[[1-[[4-[(2,6-Dichlorophenyl)methoxy]phenyl]methyl]-2-amino-2-oxoethyl]amino]carbonyl]-3-thiazolidinecarboxylic Acid 3-[2-(4-morpholinyl)ethyl]ester], the IC50 in test [1] was 50 to 750 nM; in test [2], no less than 1000 nM.

Regarding `O=C(O)c1cccc(C(=O)N2CCCC[C@H]2C(=O)N[C@@H](Cc2ccc(NC(=O)c3c(Cl)cccc3Cl)cc2)C(=O)O)n1` [Example 186], the figures for the IC50 in test [1] and in test [2] were no more than 50 nM and no more than 250 nM, respectively.

For `O=C(Nc1ccc(C[C@H](NC(=O)[C@H]2CSCN2)C(=O)O)cc1)c1c(Cl)cccc1Cl` [Example 11, 4-[(2,6-Dichlorobenzoyl)amino]-N-[[(4S)-4-thiazolidinyl]carbonyl]-L-phenylalanine Monohydrochloride Salt], the IC50 in test [1] is 50 to 750 nM; in test [2], no less than 1000 nM.
